This is an account of results in US12551479B2, “Acyl-protein thioesterase inhibitor for the treatment and/or prevention of Huntington's disease” (UNIVERSITÉ GRENOBLE ALPES, priority 2019, dated 2026).

Experiment [1] has as its system cortical neurons from WT and Hdh^CAG/+ mice. The experiment can be described thus: BDNF-mCherry axonal transport in corticostriatal network on microfluidic device. In kind it is cell-based, mouse. The protocol:
Referring to FIG. 3A, the inventors have reproduced the corticostriatal network in vitro on a microfluidic device consisting of two neuronal chambers that are connected via microchannels. Experiments are performed over a period of time ranging from 2 to 12 days in vitro (Days in vitro), i.e. DIV2 to DIV12, and a fixation/acquisition at DIV12.
(§1) For striatal StHdh cells, acute treatment was performed at 10 μM for 1 hour before and during the acquisition time. For neurons within the microchambers, treatments were started at DIV2 until DIV12 every day at 1 μM in each compartment of the microfluidic device.
The inventors then investigated whether ML-348 is able to restore dysfunctions of the corticostriatal network in Huntington's disease. Indeed, corticostriatal circuit is particularly altered in Huntington's disease, which manifests itself by a dysfunction and a degeneration of both the striatal neurons and their corticostriatal afferences. They developed a microfluidic-based approach that enables the reconstruction of a time- and space-controlled neuronal network compatible with fast spinning confocal videomicroscopy. This system uses a silicon polymer-based microfluidic device composed of two fluidically-isolated neuronal chambers that are connected via a set of thin microchannels through which neurites can grow and contact each other in an intermediate synaptic compartment. Using primary neuron cultures, they reconstituted a corticostriatal network in which cortical neurons project to striatal target neurons through oriented axodendritic connections (FIG. 3A). These devices are compatible with drug treatment and therefore can be used to test pharmacological agents in vitro on this functional circuit.
Cortical neurons from WT and Hdh^CAG/+ mice were infected with BDNF-mCherry lentivirus and acquisitions were performed at Day 12 in the distal part of the long microchannels to analyze axonal transport of BDNF (FIG. 3B). As expected, defects in axonal transport in HD (Huntington's disease) neurons were identified for both the anterograde and retrograde transport velocities, and also in the number of vesicles travelling along the microtubules (FIG. 3C-3E). These effects lead to a reduction of the linear net flux with no impact one the directionality of the vesicles (FIGS. 3F and 3G).

For the next experiment, the system named is StHdh^Q111/Q111 cells. The experiment can be described thus: RUSH system: GPI-SBP-mCherry trafficking from endoplasmic reticulum to Golgi and plasma membrane. The class given is cell-based, mouse. To be noted: StHdh^Q111/Q111 cells treated 1 hour with 10 μM. The procedure:
The RUSH plasmid (Boncompain et al., 2012) is a bicistronic plasmid (SEQ ID NO: 2) allowing the expression of two parts of the system: the reticulum-specific anchor (KDEL-streptavidin), and the reporter part (GPI-SBP-mCh). The addition of biotin in the extracellular medium (40 μM) induces the unhooking of the reporter part of the anchor, thus allowing to follow the intracellular trafficking in a synchronized way within a cell population from the endoplasmic reticulum.
as §1
The inventors used the Retention Using Selective Hooks (RUSH) system to study intracellular dynamics from the ER to the plasma membrane in Huntington's disease condition (FIG. 1A). RUSH allows tracking the synchronous release of a reporter molecule from specific intracellular compartments. In the present experiment, the inventors followed the release of glycosylphosphatidylinositol (GPI)-anchored fluorescence protein mCherry, and fused to streptavidin-binding peptide (SBP) that was retained into the ER compartment by the interaction with a “hook” protein composed of the KDEL motif fused to streptavidin. In the absence of biotin, the GPI-SBP-mCherry localizes at the ER (FIG. 1A). Addition of biotin to the cells expressing GPI-SBP-mCherry and KDEL-streptavidin causes a synchronous release of the GPI-SBP-mCherry reporter from the hook which then migrates to the Golgi apparatus and later to the plasma membrane.
To study these dynamics in the context of Huntington's disease, the inventors transfected the GPI-SBP-mCherry-KDEL-streptavidin construct as shown in SEQ ID NO:2 into immortalized striatal cells from Hdh^Q111/Q111 and Hdh^Q7/Q7 mice, referred to as StHdh^Q111/Q111 and StHdh^Q7/Q7 cells respectively. They then monitored GPI-SBP-mCherry trafficking by real-time imaging for 90 minutes. To assess intracellular trafficking dynamics, they quantified the kinetics of appearance and disappearance of mCherry fluorescence in the Golgi apparatus over time (FIGS. 1B and C). Shortly after biotin addition, GPI leaves the ER and moves to the Golgi apparatus. The inventors quantified fluorescence at the Golgi and observed that in StHdh^Q7/Q7 cells, the peak fluorescence was at 16.6 minutes, whereas it was delayed to 23.6 minutes in StHdh^Q111/Q111 cells (FIG. 1B). Their observations indicate a reduced trafficking of GPI from the ER to the Golgi apparatus as well as prolonged retention of GPI in the Golgi as evidenced by a longer period of GPI fluorescence in the Golgi apparatus.

The subject of another experiment is Hdh^CAG140/+ mice. As to the kind of experiment: Rotarod test. To be noted: Hdh^CAG/+ mice. In kind it is in vivo, mouse. The procedure: Mice littermates were grouped into mixed treatment groups. Males and females were 6 months of age at the beginning of the treatment. For each specific test, all experimental groups were tested on the same day, during the light phase and between Days 16 and 28 of treatment. Prior to testing, mice were acclimatized to the test room for a period of 30 minutes. Treatments were randomly assigned and behavioral tests were performed 12 days before the end of the delivery of the treatment. […] Mice were excluded from analysis if their performance was calculated as a significant outlier by the Grubb test. One mouse was excluded based on these criteria. Mouse weights were measured prior to the start of treatment and until the end of testing.
The Rotarod apparatus was used to measure motor coordination and balance. Rotarod test was performed over 6 consecutive days, with 3 days of accelerated rotarod and then 3 days of fixed rotarod. […] The latency and speed at which mice fall off from the rotarod were measured up to 300 sec. For a fixed rotarod, mice were evaluated for 3 trials at 10, 15, and 20 rpm on days 4, 5, and 6, respectively. […] Data are expressed as the average of the 3 trials.
(In general: In the rotarod test animals must keep their balance on a rotating rod.)

Where [2] appears, read: Hdh^CAG/+ network, 1 μM daily DIV2 to DIV12.

For the compound `O=C(CN1CCN(C(=O)c2ccco2)CC1)Nc1cc(C(F)(F)F)ccc1Cl` [ML-348], in experiment [1] (setting [2]), the “anterograde and retrograde transport velocities of BDNF-mCherry” value is “restored to values approximately equal to those of the wild type”; the “linear net flow of BDNF-mCherry vesicles” value is listed as “restored to values approximately equal to those of the wild type”; the “number of anterograde and retrograde vesicles moving over 100 μm for 30 seconds” value is recorded as “restored to values approximately equal to those of the wild type”. Moreover, in experiment [1] (WT neurons, 1 μM daily), the “effect on BDNF trafficking in WT neurons” value is on record as “inhibitory effect on BDNF trafficking”. Besides, the “time after biotin addition for the appearance of the fluorescence peak in the Golgi” value in the experiment on StHdh^Q111/Q111 cells (without treatment 23.2-23.3 min, StHdh^Q7/Q7 16.6 min) turned out to be 18.9 min. In the experiment on StHdh^Q111/Q111 cells (without treatment 24-25.4 min, wild-type cells 15.1 min), the “time for fluorescence to leave the Golgi apparatus (retention time in the Golgi)” value was 15.1 min. Besides, the “average speed achieved on accelerated rotarod” value with Hdh^CAG140/+ mice (4 to 40 rpm in 600, 300, 120 s, statistically significant in the 300 s condition) is “recover motor coordination close to that of wild-type mice”. Also, the “performance on fixed speed rotarod” value with Hdh^CAG140/+ mice (constant speed 10 and 15 rpm) is given as “significantly improved the performances”.
